This note sets out measurements from ChEMBL document CHEMBL1140672, “Design, synthesis, and evaluation of isoindolinone-hydroxamic acid derivatives as histone deacetylase (HDAC) inhibitors” (Bioorg Med Chem Lett, 2007).

In one assay the target is Histone deacetylase 1 (Homo sapiens, UniProt Q13547). The assay can be described thus: Inhibition of human HDAC1.
The next assay concerns the target Histone deacetylase 4 (Homo sapiens, UniProt P56524). The assay can be described thus: Inhibition of human HDAC4.
Assay [1] has as its target T1, Protein deacetylase HDAC6 (Homo sapiens, UniProt Q9UBN7).
T1 sequence (Q9UBN7 whole entry): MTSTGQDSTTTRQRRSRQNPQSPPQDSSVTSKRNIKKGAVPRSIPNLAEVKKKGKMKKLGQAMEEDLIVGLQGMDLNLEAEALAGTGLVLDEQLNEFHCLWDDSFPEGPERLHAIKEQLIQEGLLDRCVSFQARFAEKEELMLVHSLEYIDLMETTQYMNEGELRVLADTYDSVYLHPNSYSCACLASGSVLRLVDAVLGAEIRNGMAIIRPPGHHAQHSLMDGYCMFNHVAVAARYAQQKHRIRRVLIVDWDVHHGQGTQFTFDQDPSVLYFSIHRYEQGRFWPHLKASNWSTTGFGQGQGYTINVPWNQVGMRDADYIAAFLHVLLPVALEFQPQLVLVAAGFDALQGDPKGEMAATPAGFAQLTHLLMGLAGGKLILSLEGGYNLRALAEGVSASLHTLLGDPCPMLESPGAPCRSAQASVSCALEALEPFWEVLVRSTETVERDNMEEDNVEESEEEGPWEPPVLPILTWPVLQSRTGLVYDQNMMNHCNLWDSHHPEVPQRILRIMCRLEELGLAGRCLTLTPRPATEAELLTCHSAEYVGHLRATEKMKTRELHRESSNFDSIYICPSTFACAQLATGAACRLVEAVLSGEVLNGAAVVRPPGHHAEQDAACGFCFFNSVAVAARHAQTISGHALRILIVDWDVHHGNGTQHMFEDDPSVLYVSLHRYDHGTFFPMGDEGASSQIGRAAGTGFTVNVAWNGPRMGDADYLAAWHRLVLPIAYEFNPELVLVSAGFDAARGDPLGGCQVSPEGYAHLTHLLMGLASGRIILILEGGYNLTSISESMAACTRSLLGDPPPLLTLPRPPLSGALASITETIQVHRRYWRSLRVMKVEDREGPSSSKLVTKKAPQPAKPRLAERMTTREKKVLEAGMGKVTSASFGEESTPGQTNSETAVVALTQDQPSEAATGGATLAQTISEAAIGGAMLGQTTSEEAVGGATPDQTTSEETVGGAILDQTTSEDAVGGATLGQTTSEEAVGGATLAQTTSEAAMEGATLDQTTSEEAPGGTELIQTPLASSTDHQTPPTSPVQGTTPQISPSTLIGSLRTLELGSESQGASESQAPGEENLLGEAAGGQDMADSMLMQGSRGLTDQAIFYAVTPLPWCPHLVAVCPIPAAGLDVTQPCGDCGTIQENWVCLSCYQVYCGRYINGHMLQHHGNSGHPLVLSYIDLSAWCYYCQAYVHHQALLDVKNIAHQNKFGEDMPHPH
The assay can be described thus: Inhibition of human HDAC6.

Another assay relates to PT-45. The assay can be described thus: Antiproliferative activity against human drug-resistant PT45 cells. The format is functional, cell-based.
Assay [2] deals with PANC-1. The assay can be described thus: Antiproliferative activity against human PANC1 cells. The class given is functional, cell-based.
Assay [3] deals with PANC-1. The assay can be described thus: Increase in p27kip1 gene expression in PANC1 cells after 24 hrs relative to control. The format is functional, cell-based. Conditions: Homo sapiens.
The subject of assay [4] is PANC-1. The assay can be described thus: Increase in p21WAF1/CIP1 gene expression in PANC1 cells 1 uM after 48 hrs relative to control. The format is functional, cell-based. The settings on record: Homo sapiens.
Assay [5] has as its system PANC-1. The assay can be described thus: Increase in p21WAF1/CIP1 gene expression in PANC1 cells at 0.1 uM after 48 hrs relative to control. The format is functional, cell-based. Conditions: Homo sapiens.
The test system of assay [6] is PANC-1. The assay can be described thus: Increase in p27kip1 gene expression in PANC1 cells after 48 hrs relative to control. The format is functional, cell-based. Conditions: Homo sapiens.
Assay [7] relates to PANC-1. The assay can be described thus: Increase in p21WAF1/CIP1 gene expression in PANC1 cells after 24 hrs relative to control. The class given is functional, cell-based. Conditions: Homo sapiens.

Activity calls are given as the source filed them. The calls are words filed in the database; no cut-off is given here.

Chain of Histone deacetylase 1 (Q13547 whole entry): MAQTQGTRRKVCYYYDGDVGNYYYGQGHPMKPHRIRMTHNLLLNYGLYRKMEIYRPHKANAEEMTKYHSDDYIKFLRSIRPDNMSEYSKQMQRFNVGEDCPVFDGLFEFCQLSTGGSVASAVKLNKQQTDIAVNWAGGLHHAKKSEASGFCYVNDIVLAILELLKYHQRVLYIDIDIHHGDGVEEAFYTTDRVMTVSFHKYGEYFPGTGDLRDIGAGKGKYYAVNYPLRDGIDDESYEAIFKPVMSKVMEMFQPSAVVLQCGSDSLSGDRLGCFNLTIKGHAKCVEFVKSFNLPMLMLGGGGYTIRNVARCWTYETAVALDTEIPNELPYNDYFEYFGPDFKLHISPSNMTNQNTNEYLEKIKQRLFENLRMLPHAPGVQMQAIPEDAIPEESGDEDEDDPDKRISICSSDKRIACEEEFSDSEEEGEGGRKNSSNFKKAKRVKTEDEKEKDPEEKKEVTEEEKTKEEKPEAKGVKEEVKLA
Chain of Histone deacetylase 4 (P56524 whole entry): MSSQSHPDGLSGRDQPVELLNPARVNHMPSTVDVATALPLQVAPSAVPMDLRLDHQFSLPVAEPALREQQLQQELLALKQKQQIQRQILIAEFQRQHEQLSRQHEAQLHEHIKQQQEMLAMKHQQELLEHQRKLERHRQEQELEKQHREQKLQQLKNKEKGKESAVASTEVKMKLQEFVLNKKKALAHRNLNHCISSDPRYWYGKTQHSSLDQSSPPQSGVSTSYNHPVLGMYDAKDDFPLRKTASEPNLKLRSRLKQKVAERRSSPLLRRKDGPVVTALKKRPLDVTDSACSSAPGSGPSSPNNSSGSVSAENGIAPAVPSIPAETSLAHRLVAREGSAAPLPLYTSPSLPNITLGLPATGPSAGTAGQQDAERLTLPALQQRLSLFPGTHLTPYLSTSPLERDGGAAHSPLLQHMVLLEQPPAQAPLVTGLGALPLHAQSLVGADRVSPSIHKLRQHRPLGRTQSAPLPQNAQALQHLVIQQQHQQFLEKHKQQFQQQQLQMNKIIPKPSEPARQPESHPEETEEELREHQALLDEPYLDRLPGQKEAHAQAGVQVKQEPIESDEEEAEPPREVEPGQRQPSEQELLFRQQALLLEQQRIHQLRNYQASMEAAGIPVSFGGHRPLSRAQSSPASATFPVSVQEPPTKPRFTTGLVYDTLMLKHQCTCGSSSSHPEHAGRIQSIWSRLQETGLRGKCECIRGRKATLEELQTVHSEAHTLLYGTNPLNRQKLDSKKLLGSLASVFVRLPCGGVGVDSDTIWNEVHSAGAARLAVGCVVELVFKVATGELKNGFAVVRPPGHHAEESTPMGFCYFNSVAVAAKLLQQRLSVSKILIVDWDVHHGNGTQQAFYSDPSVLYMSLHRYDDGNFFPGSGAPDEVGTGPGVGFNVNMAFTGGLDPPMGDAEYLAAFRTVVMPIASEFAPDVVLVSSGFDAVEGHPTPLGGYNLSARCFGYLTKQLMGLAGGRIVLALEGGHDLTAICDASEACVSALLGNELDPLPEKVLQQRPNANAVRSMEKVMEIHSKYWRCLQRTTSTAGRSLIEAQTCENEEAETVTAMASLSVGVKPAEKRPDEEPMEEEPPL

Take `O=C(/C=C/c1ccc2c(c1)C(=O)N(Cc1ccccc1)C2)NO`: the figures for the IC50 (against Histone deacetylase 1; at Histone deacetylase 4; in assay [1]) were 250 nM, 220 nM and 230 nM, respectively.

As for `CC(C)(C)c1ccc(CN2Cc3ccc(/C=C/C(=O)NO)cc3C2=O)cc1`, the IC50 came out at 230 nM on Histone deacetylase 1, 180 nM at Histone deacetylase 4 and 990 nM in [1].

`O=C(/C=C/c1ccc2c(c1)C(=O)N(Cc1ccc(-c3ccccc3)cc1)C2)NO`: the IC50 came to 300 nM with PT-45; 220 nM on Histone deacetylase 1; 150 nM in the assay on PANC-1 [2]; 98 nM on Histone deacetylase 4; 750 nM in assay [1].

As for `O=C(/C=C/c1ccc2c(c1)C(=O)N(Cc1ccc(-c3ccncc3)cc1)C2)NO`, the IC50 against Histone deacetylase 1 was 3300 nM; against Histone deacetylase 4, 2100 nM; in [1] it was 15000 nM.

Turning to `O=C(/C=C/c1ccc2c(c1)C(=O)N(Cc1ccc(-c3cccnc3)cc1)C2)NO`, the result in the assay on PANC-1 [3] and in the assay on PANC-1 [6] was inactive. Also, the IC50 in the assay on PT-45 came out at 200 nM; on Histone deacetylase 1, 92 nM; with PANC-1 [2], 35 nM; against Histone deacetylase 4, 56 nM; in assay [1], 280 nM. Besides, the outcome in the assay on PANC-1 [4] and in the assay with PANC-1 [5] was Active.

On to `O=C(CCCCCCC(=O)Nc1ccccc1)NO`, for which the outcome in the assay on PANC-1 [3] and in the assay with PANC-1 [6] was inactive. In addition, the outcome in the assay with PANC-1 [7] and with PANC-1 [5] was Active.

As usually defined, the IC50 is the midpoint of a concentration-inhibition curve. A lower IC50 goes with inhibition by little substance.
